Results reported in patent US20220289794A1, “SYNTHETIC ANTIMICROBIAL PEPTIDES” (priority 2019, published 2022).

How the values were obtained:
B. subtilis (ATCC-6633) = assay: Broad-spectrum activity against Gram-Positive bacteria (MIC); type: cell-based; parameters: unit not given here
E. coli (ATCC BAA-2452) = assay: Broad-spectrum activity against Gram-Negative bacteria (MIC); type: cell-based; details: Table 16, Gram-negative panel
B. cereus (ATCC-13061) = assay: Broad-spectrum activity against Gram-Positive bacteria (MIC); type: cell-based; parameters: unit not given here
[1] = system: A. baumannii (ATCC BAA-1605); assay: Broad-spectrum activity against Gram-Negative bacteria (MIC); type: cell-based; details: Table 16, Gram-negative panel
[2] = system: P. aeruginosa (ATCC 10145); assay: as above; type: cell-based; details: Table 16, Gram-negative panel
[3] = system: P. aeruginosa (ATCC BAA-1744); assay: as above; type: cell-based; details: Table 16, Gram-negative panel
[4] = system: Methicillin-resistant Staphylococcus aureus MRSA (ATCC BAA-1556); details: MRSA ATCC BAA-1556
S. aureus ATCC 29213 = details: S. aureus ATCC 29213
[5] = system: Pseudomonas aeruginosa (ATCC 27883); details: P. aeruginosa ATCC 27883
[6] = system: Escherichia coli (ATCC 25922); details: E. coli ATCC 25922
[7] = system: Klebsiella pneumoniae (ATCC BAA-1705); details: Table 16, Gram-negative panel
[8] = system: Enterococcus faecium ATCC 27270; details: E. faecium ATCC 27270
[9] = system: Enterococcus faecium ATCC 700221; details: E. faecium ATCC 700221
[10] = system: Klebsiella pneumoniae ATCC 13883; details: Table 16, Gram-negative panel
[11] = system: Enterococcus faecalis ATCC 29212; details: E. faecalis ATCC 29212
[12] = system: Enterococcus faecalis ATCC 51575; details: E. faecalis ATCC 51575
[13] = system: Streptococcus pneumoniae ATCC 49619; details: S. pneumoniae ATCC 49619
[14] = system: Streptococcus pneumoniae ATCC 51938; details: S. pneumoniae ATCC 51938

Substance | Broad-spectrum activity B. subtilis (ATCC-6633) (B. subtilis (ATCC-6633)) | MIC E. coli (ATCC BAA-2452) (E. coli (ATCC BAA-2452)) | Broad-spectrum activity B. cereus (ATCC-13061) (B. cereus (ATCC-13061)) | MIC A. baumannii (ATCC BAA-1605) [1] | MIC P. aeruginosa (ATCC 10145) [2] | MIC P. aeruginosa (ATCC BAA-1744) [3] | MIC MRSA ATCC BAA-1556 [4] | MIC S. aureus ATCC 29213 (S. aureus ATCC 29213) | MIC P. aeruginosa ATCC 27883 [5] | MIC E. coli ATCC 25922 [6] | MIC K. pneumonia (ATCC BAA-1705) [7] | Broad-spectrum activity E. faecium (ATCC 27270) [8] | Broad-spectrum activity E. faecium (ATCC 700221) [9] | MIC K. pneumonia (ATCC 13883) [10] | Broad-spectrum activity E. faecalis (ATCC 29212) [11] | Broad-spectrum activity E. faecalis (ATCC 51575) [12] | Broad-spectrum activity S. pneumoniae (ATCC 49619) [13] | Broad-spectrum activity S. pneumoniae (ATCC 51938) [14]
c[arg-arg-arg-arg-NaI-trp-NaI] [IFX-141] | 1.5 | 25 µg/mL | 3.1 | 12.5 µg/mL | 25 µg/mL | 25 µg/mL | 6.2 µg/mL | 3.1 µg/mL | 32 µg/mL | 32 µg/mL | > 50 µg/mL | 6.2 | 6.2 | 50 µg/mL | 6.2 | 12.5 | 50 | 12.5
c[Arg-Arg-arg-Arg-Dip-Dip-Dip] [IFX-064] | 1.5 | 6.2 µg/mL | 3.1 | 6.2 µg/mL | 25 µg/mL | 25 µg/mL | 3.1 µg/mL | 3.1 µg/mL | 12.5 µg/mL | 12.5 µg/mL | 12.5 µg/mL | 3.1 | 1.5 | 50 µg/mL | 6.2 | 12.5 | 50 | 25
c[Arg-Arg-arg-Arg-Dip-Trp-Dip] [IFX-092] | 1.5 | 12.5 µg/mL | 6.2 | 12.5 µg/mL | 25 µg/mL | 25 µg/mL | 3.1 µg/mL | 3.1 µg/mL | 12.5 µg/mL | 25 µg/mL | 25 µg/mL | 6.2 | 12.5 | 50 µg/mL | 12.5 | 12.5 | 50 | 25
c[arg-Arg-Arg-Arg-Dip-Dip-Dip] [IFX-066] | 1.5 | 12.5 µg/mL | 6.2 | 6.2 µg/mL | 25 µg/mL | 12.5 µg/mL | 1.5 µg/mL | 3.1 µg/mL | 12.5 µg/mL | 12.5 µg/mL | 12.5 µg/mL | 3.1 | 3.1 | 50 µg/mL | 6.2 | 12.5 | 25 | 12.5
c[Arg-arg-Arg-Arg-Dip-Dip-Dip] [IFX-065] | 1.5 | 6.2 µg/mL | 3.1 | 6.2 µg/mL | 12.5 µg/mL | 12.5 µg/mL | 1.5 µg/mL | 3.1 µg/mL | 12.5 µg/mL | 12.5 µg/mL | 12.5 µg/mL | 3.1 | 3.1 | 50 µg/mL | 6.2 | 12.5 | 25 | 12.5
